Like-named read-outs stand apart in the source and are kept apart here. One block for each molecule: values may come before it.
Key:
MDA-MB-231 cells = test: MTT-based cell viability assay; set-up: species or system human; settings: for MTT-based relative viability: relative to cn = 1.00, peptide concentration not given, treated two days, OD 562 nm
Description: (§1) Using 96-well plates with approximately 2000 cells per well, an MTT-based metabolic activity assay was performed. The cells were treated with agents and incubated for two days. On the fourth day, they were stained with 0.5 mg/mL thiazolyl blue tetrazolium bromide (M5655, Sigma). The optical density, used to assess metabolic activity, was measured at 562 nm. For the EdU-based proliferation activity assay, the cells were seeded in 96-well plates at about 1000 cells per well. A fluorescence-based cell proliferation kit (Click-iT™, EdU Alexa Fluor™ 488 Imaging Kit; Thermo Fisher, Waltham, MA, USA) was used according to the manufacturer’s instructions.

MDA-MB-436 cells = test: MTT-based cell viability assay; set-up: species or system human; settings: for MTT-based relative viability: relative to cn = 1.00, peptide concentration not given, treated two days, OD 562 nm
Description: as §1

MCF7 cells = test: MTT-based cell viability assay; set-up: species or system human
Description: as §1

PANC1 PDAC cells = test: MTT-based cell viability assay
Description: as §1

PANC198 PDAC cells = test: MTT-based cell viability assay; settings: PANC198 (PAN198)
Description: as §1

[1] = test system: TT2 osteosarcoma cell line; test: MTT-based cell viability assay; settings: TT2 OS cells
Description: as §1

[2] = test system: 4T1.2 mammary tumor cells; test: MTT-based cell viability assay; set-up: species or system mouse
Description: as §1

[3] = test system: human triple-negative breast cancer tissue; test: Ex vivo cancer tissue assay; type: cell-based; settings: 5 µM Cisplatin or Taxol with 25 µg/mL of P18; 48 and 96 h; n = 6
Description: The usage of human triple-negative breast cancer tissue was approved by the Indiana University Institutional Review Board (1911155674), and the tissues were received from the Indiana University Simon Comprehensive Cancer Center Tissue Procurement Core. Freshly isolated breast cancer tissue (~10 mg) was manually fragmented with a scalpel into small pieces (0.5~0.8 mm in length), which were grown in DMEM with 10% FBS and antibiotics for a day. […] The culture medium, consisting of these agents, was applied for 4 days, and a change in the fragment size was determined.

Molecule: VNFTVDQIR [P12, ACP candidate … from Eef2]
MTT-based relative viability (MDA-MB-231 cells): 0.94
MTT-based relative viability (MDA-MB-436 cells): 0.92

Molecule: FEELNADLFR [P21, ACP candidate … from Hspa8]
MTT-based relative viability (MDA-MB-231 cells): 0.89
MTT-based relative viability (MDA-MB-436 cells): 0.92

Molecule: FEDENFILK [P11, ACP candidate … from Ppia]
MTT-based relative viability (MDA-MB-231 cells): 0.96
MTT-based relative viability (MDA-MB-436 cells): 0.95

Molecule: LGDLYEEEMR [P17, ACP candidate … from Vim]
MTT-based relative viability (MDA-MB-231 cells): 1.10
MTT-based relative viability (MDA-MB-436 cells): 0.99

Molecule: YEWDVAEAR [P16, ACP candidate … from Eef2]
MTT-based relative viability (MDA-MB-231 cells): 0.93
MTT-based relative viability (MDA-MB-436 cells): 0.96

Molecule: TDYMVGSYGPR-NH2 [P18-NH2, C-terminal-amidated P18, …-NH2]
tumor-suppressor effect compared with the original P18 (MTT) (MCF7 cells): did not improve the tumor-suppressor effect
tumor-suppressor effect compared with the original P18 (MTT) (MDA-MB-231 cells): did not improve the tumor-suppressor effect
tumor-suppressor effect compared with the original P18 (MTT) (MDA-MB-436 cells): did not improve the tumor-suppressor effect
tumor-suppressor effect compared with the original P18 (MTT) (PANC1 PDAC cells): did not improve the tumor-suppressor effect
tumor-suppressor effect compared with the original P18 (MTT) (PANC198 PDAC cells): did not improve the tumor-suppressor effect
tumor-suppressor effect compared with the original P18 (MTT) [1]: did not improve the tumor-suppressor effect
tumor-suppressor effect compared with the original P18 (MTT) [2]: did not improve the tumor-suppressor effect

Molecule: IEVIEIMTDR [P22, ACP candidate … from Hnrnpa1]
MTT-based relative viability (MDA-MB-231 cells): 0.86
MTT-based relative viability (MDA-MB-436 cells): 0.88

Molecule: IDTIEIITDR [P15, ACP candidate … from Hnrn]
MTT-based relative viability (MDA-MB-231 cells): 0.93
MTT-based relative viability (MDA-MB-436 cells): 0.95

Molecule: EEAESTLQSFR [P14, ACP candidate … from Vim]
MTT-based relative viability (MDA-MB-231 cells): 0.88
MTT-based relative viability (MDA-MB-436 cells): 0.84

IC50 (MDA-MB-231 cells; Homo sapiens, drug alone, read-out: IC50, MTT-based viability): 700 nM
IC50 (MDA-MB-231 cells; Homo sapiens, drug in combination with P18, read-out: IC50, MTT-based viability, with application of P18): 300 nM
Molecule: CC(=O)O[C@H]1C(=O)[C@@]2(C)[C@H]([C@H](OC(=O)c3ccccc3)[C@]3(O)C[C@H](OC(=O)[C@H](O)[C@@H](NC(=O)c4ccccc4)c4ccccc4)C(C)=C1C3(C)C)[C@]1(OC(C)=O)CO[C@@H]1C[C@@H]2O [Taxol, reference compound]
size of cancer tissues, drug with concurrent P18 versus drug alone [3]: more pronounced reduction in the size

Molecule: NDLAVVDVR [P13, ACP candidate … from Ncl]
MTT-based relative viability (MDA-MB-231 cells): 0.98
MTT-based relative viability (MDA-MB-436 cells): 0.95

Molecule: QITLNDLPVGR [P20, ACP candidate … from Prdx4]
MTT-based relative viability (MDA-MB-231 cells): 0.87
MTT-based relative viability (MDA-MB-436 cells): 0.86

Molecule: DQVANSAFVER [P19, ACP candidate … from Hsp90aa1]
MTT-based relative viability (MDA-MB-231 cells): 1.09
MTT-based relative viability (MDA-MB-436 cells): 0.96

Molecule: N.N.[Cl][Pt][Cl] [Cisplatin, reference compound]
IC50 (MDA-MB-231 cells; drug alone, read-out: IC50, MTT-based viability): 1200 nM
IC50 (MDA-MB-231 cells; drug in combination with P18, read-out: IC50, MTT-based viability, with application of P18): 500 nM
size of cancer tissues, drug with concurrent P18 versus drug alone [3]: more pronounced reduction in the size

B1: Arhgdia: Rho GDP dissociation inhibitor alpha; human recombinant ARHGDIA protein (MyBioSource) (protein, UniProt P52565 2-204, looked up)
Rho GDP-dissociation …: AEQEPTAEQLAQIAAENEEDEHSVNYKPPAQKSIQEIQELDKDDESLRKYKEALLGRVAVSADPNVPNVVVTGLTLVCSSAPGPLELDLTGDLESFKKQSFVLKEGVEYRIKISFRVNREIVSGMKYIQHTYRKGVKIDKTDYMVGSYGPRAEEYEFLTPVEEAPKGMLARGSYSIKSRFTDDDKTDHLSWEWNLTIKKDWKD
MTT-based cell viability (MDA-MB-231 cells; 5 μg/mL of recombinant ARHGDIA protein): significant reduction
